From ChEMBL document CHEMBL1121794, “Octanol-physiological buffer distribution coefficients of lipophilic amines by reversed-phase high-performance liquid chromatography and their correlation with biological activity” (J Med Chem, 1981)

Experiments:
[1] = not given; remark: listed apart in the source
[2] = not given; remark: listed apart in the source
[3] = octanol/water
Description: Partition coefficient (logD, measured by HPLC, log k')

[4] = (§1) Partition coefficient (logD7.4); conditions: octanol/water, pH 7.4
[5] = not given; remark: listed apart in the source
[6] = not given; remark: listed apart in the source
[7] = not given; remark: listed apart in the source
[8] = not given; remark: listed apart in the source
[9] = (§2) Partition coefficient (logD) (HPLC); format: physicochemical; conditions: octanol/water
[10] = as §2; format: physicochemical; conditions: octanol/water; remark: listed apart in the source
[11] = not given; remark: listed apart in the source
[12] = not given; remark: listed apart in the source
physchem [13] = conditions: octanol/water, pH 7.4
[14] = not given; remark: listed apart in the source
[15] = not given; remark: listed apart in the source
[16] = not given; remark: listed apart in the source
[17] = not given; remark: listed apart in the source
[18] = not given; remark: listed apart in the source
[19] = as §1; conditions: octanol/water, pH 7.4; remark: listed apart in the source
physchem [20] = conditions: octanol/water
physchem [21] = conditions: octanol/water; remark: listed apart in the source

Row | Compound | Log k' | Log k' [1] | Log k' [2] | Log k' [3] | logD [4] | Log k' [5] | Log k' [6] | Log k' [7] | Log k' [8] | other results
1 | c1ccc2nc3ccccc3cc2c1 [ACRIDINE] | 2.103 | 1.501 | 0.685 | 1.993 | 3.29 | 2.146 | 1.447 | 0.775 | 1.556 | –
2 | c1ccccc1 [BENZENE] | – | – | – | 0.874 | – | – | – | – | – | –
3 | Clc1ccccc1 [CHLOROBENZENE] | 1.61 | 1.027 | 1.022 | – | 2.87 | 1.631 | 1.61 | 0.773 | – | logD [9]: 1.56; logD [10]: 1.05
4 | CN1CCN(C2=Nc3cc(Cl)ccc3Nc3ccccc32)CC1 [CLOZAPINE] | 1.73 | 1.136 | – | – | 2.99 | 1.734 | 1.725 | – | – | logD [9]: 1.66; logD [10]: 1.4; Log k' [11]: 0.817; Log k' [12]: 1.15
5 | CN1CCC(=C2c3ccccc3C=Cc3ccccc32)CC1 [CYPROHEPTADINE] | – | 1.516 | – | 1.853 | 3.11 | 1.999 | – | – | – | logD (physchem [13]): 3.14; Log k' [14]: 1.984; Log k' [15]: 1.529; Log k' [11]: 1.037; Log k' [16]: 1.715; Log k' [17]: 1.527; Log k' [18]: 1.715; Log k' [12]: 1.43
6 | CCCCOc1cc(C(=O)NCCN(CC)CC)c2ccccc2n1 [DIBUCAINE] | 1.642 | 1.064 | 0.501 | 1.588 | 2.91 | 1.651 | 1.11 | 0.915 | 1.215 | –
7 | COc1ccccc1N1CCN(CCCC(=O)c2ccc(F)cc2)CC1 [FLUANISONE] | 1.64 | 0.996 | 1.063 | 1.448 | 2.93 | 1.669 | 1.64 | 0.805 | 1.175 | –
8 | CN(C)CCCN1c2ccccc2CCc2ccccc21 [IMIPRAMINE] | – | – | – | 1.194 | – | – | – | – | – | Log k' [14]: 1.227; Log k' [15]: 0.806; Log k' [16]: 1.145; Log k' [17]: 0.934
9 | O=C(NC1CCN(CCc2c[nH]c3ccccc23)CC1)c1ccccc1 [INDORAMIN] | – | 0.297 | – | 0.858 | 2.313 | 1.049 | – | – | – | logD (physchem [13]): 2.28; Log k' [14]: 1.028; logD [19]: 2.27; Log k' [15]: 0.348; Log k' [11]: -0.055; Log k' [16]: 0.536; Log k' [17]: 0.413; Log k' [18]: 0.536; Log k' [12]: 0.136
10 | Cc1cccc(C)c1NC(=O)C1CCCCN1C (stereo not drawn) [MEPIVACAINE] | 0.008 | -0.564 | -0.492 | -0.098 | 1.27 | 0.051 | 0.008 | -0.462 | -0.429 | logD (physchem [20]): 1.22; logD (physchem [21]): 1.26
11 | CN1CCCCC1CCN1c2ccccc2Sc2ccc([S+](C)[O-])cc21 (stereo not drawn) [MESORIDAZINE] | – | – | – | 1.045 | 1.8 | – | – | – | 0.923 | logD (physchem [20]): 1.84; logD (physchem [21]): 1.78
12 | O=[N+]([O-])c1ccccc1 [NITROBENZENE] | – | – | – | 0.564 | 1.88 | – | – | – | – | –
13 | CCC(=O)O[C@](Cc1ccccc1)(c1ccccc1)[C@H](C)CN(C)C [PROPOXYPHENE] | 1.259 | – | 0.483 | 1.124 | 2.36 | 1.263 | 0.769 | 0.673 | 0.795 | Log k' [18]: 0.656
